Assay results published in patent US20220072009A1, “SHORT-ACTING SELECTIVE GLUCOCORTICOID RECEPTOR MODULATORS” (PANDA CONSULTING LLC, priority 2018, published 2022).

Experiments:
male CD-1 mice = experiment: elevated plus maze test (EPM), mouse model of stress-induced anxiety; type: in vivo
Method: Formula III (also referred to as PND-001) as a representative compound out of the class of SASGRMs was tested in a mouse model of stress-induced anxiety, the elevated plus maze test (EPM) (Experiment 1). The EPM relies on the inherent conflict between a rodent's tendency to explore a novel environment on one hand, and the stress of such exploration, resulting in avoidance of the aversive properties of the brightly lit open arms. Compounds that reduce anxiety specifically increase the frequency of entries into the open arms and time spent in the open arms.
Four to five week-old male CD-1 mice were group-housed (6 or 7 mice per cage) and maintained in a room with controlled temperature (21-22° C.) and a reversed light-dark cycle (12 h/12 h; lights on: 17:30-05:30; lights off: 05:30-17:30) with food and water available ad libitum.
Formula III and the vehicle (5% Dimethyl Sulfoxide (DMSO) and 95% Polyethylene Glycol 400 (PEG400)) were s.c. administrated 24 hours and 6 hours prior the EPM trial.
Diazepam was p.o. administrated 60 min prior the EPM trial as a positive control.
Formula III was tested in doses of 10, 30 and 100 mg/kg. Diazepam was p.o administrated 60 min prior the EPM trial and tested in a dose of 1 mg/kg. (see Table 1).
The mice were randomly assigned to one of the different experimental groups. Each animal was identified by its group name, cage number, series (day) of experiment, and a number (from 1 to 12) written with permanent ink on its tail.
The apparatus was a PVC maze covered with Plexiglas and subdivided into four equal exploratory arms (21×8 cm), which are all interconnected by a small platform (8×8 cm). The apparatus was placed 59 cm above the floor. Two arms are opened and two others are closed with wall (high: 21 cm).
After compound administration, mouse was placed on the platform opposite a closed arm. The number of entries and the time spent in each arm were recorded during a 5 min period. The animal was considered as entered in an arm when it places its four paws in the arm.
Analysis of variance (ANOVA) was performed on the result data. Fisher's PLSD was used for pairwise comparisons and p value ≤0.05 were considered significant.
In the next experiment in the Elevated Plus Maze Test (Experiment 2; conducted as described under the same experimental procedures and analysis as described for Experiment 1), the efficacy of Formula III (also referred to as PND001) at lower doses was studied. […] Compounds or vehicle (5% Dimethyl Sulfoxide (DMSO) and 95% Polyethylene Glycol 400 (PEG400)) were administrated s.c. 24 hours and 6 hours prior the EPM trial (Table 3).
Formula III (PND 001) was tested in doses of 1, 3 and 10 mg/kg. Formula IV (PND 002) was tested in doses of 30 mg/kg. Diazepam was p.o administrated 60 min prior the EPM trial as positive control and tested in a dose of 1 mg/kg.
In a third experiment in the Elevated Plus Maze Test (Experiment 3), conducted as described under the same experimental procedures and analysis as described for Experiment 1, the effect of the dosing route and regimen was investigated. Formula III (also referred to as PND001) and the vehicle (5% Dimethyl Sulfoxide (DMSO) and 95% Polyethylene Glycol 400 (PEG400)) were administrated by gavage (p.o.). Diazepam was i.p. administrated 30 min prior the EPM trial as positive control.
PND 001 was tested in doses of 3 mg/kg which had the highest efficacy in Experiment 2, and administrated either twice at 6 h and 1 h before the EPM trial, or given only once at 1 h before the trial. Diazepam was i.p. administrated 30 min prior the EPM trial and tested in a dose of 1 mg/kg. (see Table 5).

corticosterone = details: mouse, in vivo, po, 30 mg/kg
MDCK cell monolayers = details: pH 7.4
Method: BBB penetration is assessed in vitro using confluent MDCK cell monolayers and dosing of 504 of test compounds on apical and basolateral side of the monolayer at pH 7.4 for 90 min. The apparent permeability in both directions, and the efflux ratio is determined after subjecting samples to LC-MS/MS analysis.

[1] = reported, cited from earlier work
rat hepatocytes = details: in vitro, reported; cited from earlier work
human plasma proteins = details: reported; cited from earlier work
rat plasma proteins = details: reported; cited from earlier work
[2] = Experiment 1, 1 mg/kg po 60 min
[3] = Experiment 2, 1 mg/kg po 60 min
[4] = Experiment 3, 1 mg/kg ip 30 min
[5] = Experiment 3, 1 mg/kg, 30 min, ip
[6] = Experiment 2, 30 mg/kg sc 24 h and 6 h
[7] = Experiment 2, 30 mg/kg, 24 + 6 h, sc

SMILES: CN1C(=O)CN=C(c2ccccc2)c2cc(Cl)ccc21 [Diazepam, reference compound]
- increase in number of entries to the open arms compared to vehicle treated mice (male CD-1 mice; [2]): 233%
- increase in time spent in the open arms compared to vehicle treated mice (male CD-1 mice; [2]): 327%
- Number of entries in the open arm, Mean (male CD-1 mice; Experiment 1, 1 mg/kg, 1 h, po): 10.0 n
- Time spent in the open arm, Mean (male CD-1 mice; Experiment 1, 1 mg/kg, 1 h, po): 59.6 s
- increase in number of entries into the open arms compared to vehicle treated mice (male CD-1 mice; [3]): 146%
- increase in time spent into the open arms compared to vehicle treated mice (male CD-1 mice; [3]): 151%
- Number of entries in the open arm, Mean (male CD-1 mice; Experiment 2, 1 mg/kg, 1 h, po): 14.0 n
- Time spent in the open arm, Mean (male CD-1 mice; Experiment 2, 1 mg/kg, 1 h, po): 84.6 s
- increase in number of entries into the open arms compared to vehicle treated mice (male CD-1 mice; [4]): 400%
- increase in time spent into the open arms compared to vehicle treated mice (male CD-1 mice; [4]): 270%
- Number of entries in the open arm, Mean (male CD-1 mice; [5]): 23.2 n
- Time spent in the open arm, Mean (male CD-1 mice; [5]): 116.9 s

SMILES: CC#C[C@]1(O)CCC2C3CCC4=CC(=O)CC[C@]4(Cc4ccc(C)cc4)C3=CC[C@@]21C (stereo partly drawn) [Formula I, (10R,13S,17S)-17-hydroxy-13-methyl-10-[(4-methylphenyl)methyl]-17-prop-1-ynyl-2,6,7,8,12,14,15,16-octahydro-1H-cyclopenta[a]phenanthrene-3-one]
- corticosterone increase (corticosterone): not found to be significantly increased
- BBB penetration potential (MDCK cell monolayers): moderate to high
- half life in rat liver microsomes ([1]; in vitro): 19.8 min
- half life in rat hepatocytes (rat hepatocytes): less than 0.2 h

SMILES: C[C@]12CCC3C(C[C@H]4OC[C@@]35CCC(=O)C=C45)C1CC[C@@H]2C(=O)CO (some centres unmarked) [Formula II]
- corticosterone increase (corticosterone): not found to be significantly increased
- BBB penetration potential (MDCK cell monolayers): moderate to high

SMILES: CCCCCCNC(=O)[C@@]1(O)[C@H](C)CC2[C@@H]3CCC4=CC(=O)C=C[C@]4(C)[C@@]3(F)[C@@H](O)C[C@@]21C (some centres unmarked) [Formula IV]
- corticosterone increase (corticosterone): not found to be significantly increased
- BBB penetration potential (MDCK cell monolayers): moderate to high
- conversion to unidentified metabolites in rat liver microsomes (time) [1]: ≤ 30 min
- increase in number of entries into the open arms compared to vehicle treated mice (male CD-1 mice; [6]): 77%
- increase in time spent into the open arms compared to vehicle treated mice (male CD-1 mice; [6]): 90%
- Number of entries in the open arm, Mean (male CD-1 mice; [7]): 10.1 n
- Time spent in the open arm, Mean (male CD-1 mice; [7]): 64.1 s

SMILES: C[C@]12C=CC(=O)C=C1CCC1C2OC[C@@]2(C)C1CC[C@]2(O)C(=O)CO (some centres unmarked) [Formula V]
- corticosterone increase (corticosterone): not found to be significantly increased
- BBB penetration potential (MDCK cell monolayers): moderate to high

SMILES: CC#C[C@]1(O)CC[C@H]2[C@@H]3CCC4=CC(=O)CCC4=C3[C@@H](c3ccc(N(C)C)cc3)C[C@@]21C [mifepristone]
- plasma protein binding, human serum (human plasma proteins): over 95%
- plasma protein binding, rat serum (rat plasma proteins): over 95%
